From patent publication US7053041B1, “Methods and compositions useful for inhibition of αvβ5mediated angiogenesis” (The Scripps Research Institute, priority 1996, dated 2006) come the findings set out here.

Entries after “also recorded” stand apart in the source; their conditions may differ. [ ]: non-standard residue; d: D form.

Assay [1] has as its system VEGF-induced angiogenesis. Description: in vivo rabbit eye model assay, VEGF-induced corneal angiogenesis. As to the method: Hydron polymer pellets containing growth factor and monoclonal antibodies (mAbs) were prepared as described by D'Amato, et al., Proc. Natl. Acad. Sci., 91:4082–4085 (1994). […] In addition, hydron pellets were prepared which contained either 40 μg of the mAb P1F6 (anti-αvβ5) or the control antibody, LM609 (anti-αvβ3), in PBS.
All of the mAbs tested were purified from ascites fluid using Protein-A Sepharose CL-4B affinity column chromatography according to well-known methods. The eluted immunoglobulin was then dialyzed against PBS and treated with Detoxi-gel (Pierce Chemicals, Rockford, Ill.) to remove endotoxin. […] Monoclonal antibodies were therefore tested for the presence of endotoxin with the Chromogenic Limulus Amebocyte Lysate Assay (BioWhittaker, Walkersville, Md.) and only those mAbs without detectable endotoxin were used in the rabbit eye model assay.
Approximately 12 μl of casting material was placed into each peg and polymerized overnight in a sterile hood. Pellets were then sterilized by ultraviolet irradiation.
A series of eight animals were used for paired eye experiments where each animal received a Hydron implant containing a preselected cytokine with a preselected antibody or control immunoglobulin. Specifically, for each rabbit, one cornea was surgically implanted with a Hydron pellet containing either bFGF or VEGF in conjunction with mAb P1F6 and the other cornea was treated with either bFGF or VEGF in conjunction with MAb LM609. […]
The effects of specific mAb integrin immunoreactivity on the above cytokine-induced angiogenesis is also quantified as shown in FIGS. 2A and 2B. […] Photographs were recorded on Kodak Ektachrome 64T slide film and images were converted for computer-assisted quantitation using Biorad's Molecular Analyst 1.1 software after acquisition through a Model GS670 imaging densitometer. […]
Each experiment consisted of eight rabbits in which one eye received a pellet comprising 100 nanograms (ng) bFGF and the other eye received a pellet comprising 1 microgram (ug) VEGF. […] After 7 days, the cornea were evaluated as described above.

For assay [2], the system named is VEGF-induced angiogenesis. The assay is described as follows: chick CAM assay, VEGF-induced angiogenesis, intravenous inhibitors. It counts as in vivo. Conditions: for inhibition of VEGF-induced CAM angiogenesis: VEGF 150 ng/ml, 75 μg antibody or peptide intravenously, 72 hours. The method, then: Ten day old chick embryos were obtained from McIntyre Poultry (Lakeside, Calif.) and incubated at 37C with 60% humidity. A small hole was made through the shell at the end of the egg directly over the air sac with the use of a small crafts drill (Dremel, Division of Emerson Electric Co., Racine, Wis.). A second hole was drilled on the broad side of the egg in a region devoid of embryonic blood vessels determined previously by candling the egg. […] A 1.0 centimeter (cm)×1.0 cm square window was cut through the shell over the dropped CAM with the use of a small model grinding wheel (Dremel). The small window allowed direct access to the underlying CAM.
Angiogenesis was induced by placing a 5 millimeter (mm)×5 mm Whatman filter disk (Whatman Filter paper No. 1) saturated with Hanks Balanced Salt Solution (HBSS, GIBCO, Grand Island, N.Y.) or HBSS containing preselected cytokines at a preselected concentration, i.e. one to test the effect on angiogenesis, on the CAM of a 10 day chick embryo in a region devoid of blood vessels and the windows were later sealed with tape. Angiogenesis was monitored by photomicroscopy after 72 hours. CAMs were snap frozen then 6 μm cryostat sections were fixed with acetone and stained by immunofluorescence as described in Example 2B and 2C with 10 μg/ml of selected anti-integrin antibodies, including those directed against αvβ5 as described in Example 1.
Angiogenesis was first induced on 10 day old chick embryos by application of growth factor-saturated filter disks. Specifically, in the first assays, angiogenesis was induced by exposure to either bFGF or VEGF, each at a concentration of 150 ng/ml.
For application of growth factors, during the candling procedures, prominent blood vessels were selected and marks were made on the egg shell to indicate their positions. The holes were drilled in the shell, the CAMs were dropped and growth factor-saturated filter papers were then separately placed on the CAMs as described above. The windows were sealed with sterile tape and the embryos were replaced in the incubator.
Twenty four hours later, a second small window was carefully cut on the lateral side of the egg shell directly over prominent blood vessels selected previously. The outer egg shell was carefully removed leaving the embryonic membranes intact. The shell membrane was made transparent with a small drop of mineral oil (Perkin-Elmer Corp, Norwalk, Conn.) which allowed the blood vessels to be visualized easily. Then, phosphate buffered saline (PBS), 75 μg of purified sterile anti-integrin antibodies or 75 μg of synthetic peptides (cyclic peptide RGDfV, SEQ ID NO 4 and control cyclic peptide RADfV, SEQ ID NO 5) in PBS were injected into blood vessels apparent on the growth factor-induced CAMs. The windows were sealed with tape and the embryos were allowed to incubate until 72 hours.
The filter discs and representative surrounding CAM tissues were photographed in a stereomicroscope (FIGS. 3A–3F and FIGS. 5A–5F) and the mean angiogenic index +/− the standard error was determined for 12 CAMs per condition (FIGS. 4A–4B and FIGS. 6A–6B). Angiogenesis was scored for each embryo in a double blind manner by analyzing the number and extent of branching of blood vessels within the area of each disc. The scores ranged from 1 (low) to 4 (high) and the angiogenesis index was determined by subtracting a background of 1 from all data.
In a further assay performed in the CAM model having VEGF-induced angiogenesis, 2 μg of peptides 85189 (SEQ ID NO 9) and the inert salt counterpart 121974 were separately intravenously injected as previously described. The effect of the peptides was assessed in comparison to that of control peptide 69601 (SEQ ID NO 5) and to untreated (labeled as NT) preparations.
The effect of the peptides of VEGF-induced angiogenesis is measured through a determination of the number of blood vessel branch points. […]

For “cyclo(Arg-Ala-Asp-D-Phe-Val) (cyclo(RAD[dF]V); SMILES CC(C)[C@@H]1NC(=O)[C@@H](Cc2ccccc2)NC(=O)[C@H](CC(=O)O)NC(=O)[C@H](C)NC(=O)[C@H](CCCNC(=N)N)NC1=O) [peptide 69601, reference compound]”, the “corneal blood vessel growth at 7 days, VEGF-stimulated eyes” value in assay [1] (peptide s.q. 50 ug per kg initial, 20 ug/kg daily, 1 ug VEGF pellet) is on record as “substantial corneal blood vessel growth”. For the same molecule, the “inhibition of VEGF-induced CAM angiogenesis” value in assay [2] was “did not effect angiogenesis”.

As to “cyclo(Arg-Gly-Asp-D-Phe-NMeVal) [peptide 85189]”, the “inhibition of corneal blood vessel growth” value in assay [1] (peptide s.q. 50 ug per kg initial, 20 ug/kg daily, 7 days, 1 ug VEGF pellet) is listed as about 100%. Further, the “inhibition of VEGF-induced CAM angiogenesis (number of blood vessel branch points)” value in assay [2] (2 μg peptide intravenously) is on record as “completely inhibited angiogenesis”.

B1: LM609: mouse monoclonal antibody, anti-αvβ3 (antibody, V domains shown)
VH: EVQLEESGGGLVKPGGSLKLSCAASGFAFSSYDMSWVRQIPEKRLEWVAKVSSGGGSTYYLDTVQGRFTISRDNAKNTLYLQMSSLNSEDTAMYYCARHNYGSFAYWGQGTLVTVSA
VL: ELVMTQTPATLSVTPGDSVSLSCRASQSISNHLHWYQQKSHESPRLLIKYASQSISGIPSRFSGSGSGTDFTLSINSVETEDFGMYFCQQSNSWPHTFGGGTKLEIKRA
With B1, the “inhibition of VEGF-induced corneal angiogenesis” value in assay [1] (Hydron pellet with 750 ng VEGF and 40 μg mAb, postoperative day 10) was “not effective at inhibiting VEGF-induced angiogenesis; also recorded: minimal effect on VEGF-induced angiogenesis”. The “inhibition of VEGF-induced CAM angiogenesis” value in assay [2] was “little effect on angiogenesis”. The “effect on CAM angiogenesis induced by VEGF (angiogenesis index)” value in assay [2] (VEGF 1.0 μg/ml, antibodies 75 μg per embryo, calphostin C 100 nM) is listed as “failed to do so”.
